In patent publication US12054498B2, “Heteroaromatic macrocyclic ether chemotherapeutic agents” (Nuvalent, Inc., priority 2020, dated 2024):

How the values were obtained:
[1] = target: T1, TRKA-wt (Homo sapiens, UniProt P04629); experiment: Biochemical kinase assay, TRKA-wt kinase domain; details: apparent inhibitory constant, Morrison equation; ATP 2 mM in substrate solution; read-out: TRKA-wt Ki^app
T1 construct: or TRKA-wt (1 nM, BPS Bio, 40280) kinase domains in buffer; purchased BPS Bio 40280
T1 sequence (P04629 510-781 limits assumed): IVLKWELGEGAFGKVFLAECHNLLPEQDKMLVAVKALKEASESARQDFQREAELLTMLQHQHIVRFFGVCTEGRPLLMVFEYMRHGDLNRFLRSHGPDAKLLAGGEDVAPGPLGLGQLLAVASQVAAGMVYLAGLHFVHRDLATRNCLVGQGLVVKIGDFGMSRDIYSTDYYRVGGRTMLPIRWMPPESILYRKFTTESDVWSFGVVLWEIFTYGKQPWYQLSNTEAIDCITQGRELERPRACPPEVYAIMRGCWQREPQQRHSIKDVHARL
Summary of the method: (§1)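 Kinase domains (in kinase solution: ROS1-G2032R 0.5 nM, ROS1-wt 0.6 nM, TRKA 1 nM, ALK L1196M/G1202R 3 nM) were mixed with compound and a substrate solution of 2 mM ATP plus 26 μM fluorogenic AQT0101 (ALK, ROS1) or AQT0104 (TRKA) in HEPES pH 7.5/MgCl2. Fluorescence was followed for 120 min at 30° C; Ki^app was obtained by Morrison fit of initial rates.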

[2] = target: T2, Ba/F3 cells TPM3-TRKA (Homo sapiens, UniProt P04629); experiment: Ba/F3 cell proliferation assay, TPM3-TRKA; assay type: cell-based; details: 72 hours, CellTiter-Glo, read-out: TPM3-NTRK1-wt IC50
T2 construct: host or cells: Ba/F3 (RIKEN), retroviral pMSCV-puro; the other entry of the earlier key: TPM3 (P06753, Tropomyosin alpha-3 chain)
T2 sequence (P04629 510-796 limits assumed): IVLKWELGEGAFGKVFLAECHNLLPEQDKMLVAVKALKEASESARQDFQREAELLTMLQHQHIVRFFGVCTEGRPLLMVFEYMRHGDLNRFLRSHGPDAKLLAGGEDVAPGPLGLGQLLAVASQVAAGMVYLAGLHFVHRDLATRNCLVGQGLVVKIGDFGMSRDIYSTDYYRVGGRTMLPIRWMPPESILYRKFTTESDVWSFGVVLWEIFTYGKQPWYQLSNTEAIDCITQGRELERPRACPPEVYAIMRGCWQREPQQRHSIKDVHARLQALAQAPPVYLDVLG
Summary of the method: (§2)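 Luminescence from CellTiter-Glo after 72 hours of compound exposure measured viability of IL-3-independent Ba/F3 cells carrying the retrovirally introduced fusion. Cells were plated at 1,000 per well one day before 3-fold serial dilutions were added. IC50 values came from four-parameter logistic regression.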

[3] = target: T3, ALK-wt (Homo sapiens, UniProt Q9UM73); experiment: Biochemical kinase assay, ALK-wt kinase domain; details: apparent inhibitory constant, Morrison equation; ATP 2 mM in substrate solution; read-out: ALK-wt Ki^app
T3 construct: purchased Carna 08-518
T3 sequence (Q9UM73 1116-1392 limits assumed): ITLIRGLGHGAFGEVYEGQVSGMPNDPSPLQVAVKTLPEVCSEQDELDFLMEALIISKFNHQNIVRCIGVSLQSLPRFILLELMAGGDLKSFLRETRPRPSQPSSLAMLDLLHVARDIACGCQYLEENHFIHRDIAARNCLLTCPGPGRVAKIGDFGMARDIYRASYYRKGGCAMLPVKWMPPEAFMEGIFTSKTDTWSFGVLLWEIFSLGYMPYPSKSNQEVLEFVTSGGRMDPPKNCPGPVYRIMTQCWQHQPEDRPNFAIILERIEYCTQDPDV
Summary of the method: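 Apparent Ki values come from fitting initial reaction rates against inhibitor concentration to the Morrison equation. Rates were taken from the linear phase of fluorogenic substrate phosphorylation (AQT0101 for ALK and ROS1, AQT0104 for TRKA; 26 μM in substrate solution with 2 mM ATP), monitored at 485 nm over 120 min at 30° C.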

[4] = target: T4, Ba/F3 cells CD74-ROS1 G2032R (Homo sapiens, UniProt P08922, G2032R); experiment: Ba/F3 cell proliferation assay, CD74-ROS1 G2032R; assay type: cell-based; details: 72 hours, CellTiter-Glo
T4 construct: fusion of the C-terminus of ROS1 with the N-terminus of various partner proteins; host or cells: Ba/F3 (RIKEN), retroviral pMSCV-puro; the other entry of the earlier key: CD74 (P04233, HLA class II histocompatibility antigen gamma chain)
T4 sequence (P08922 1883-2347 G2032R limits assumed): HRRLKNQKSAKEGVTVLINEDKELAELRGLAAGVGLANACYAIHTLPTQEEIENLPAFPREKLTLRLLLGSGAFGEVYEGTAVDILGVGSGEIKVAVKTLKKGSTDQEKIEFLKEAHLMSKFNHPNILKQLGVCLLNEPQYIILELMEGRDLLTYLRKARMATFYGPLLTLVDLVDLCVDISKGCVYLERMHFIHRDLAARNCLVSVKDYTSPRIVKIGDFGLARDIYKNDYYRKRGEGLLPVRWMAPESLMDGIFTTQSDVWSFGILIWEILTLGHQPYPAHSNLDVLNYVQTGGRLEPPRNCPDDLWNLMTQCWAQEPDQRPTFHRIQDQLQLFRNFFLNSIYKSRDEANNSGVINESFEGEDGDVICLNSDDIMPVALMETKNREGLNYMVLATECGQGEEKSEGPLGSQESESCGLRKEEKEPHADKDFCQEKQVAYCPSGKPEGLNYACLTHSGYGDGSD
Summary of the method: (§3)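 Cells were seeded 1 day, then exposed to a 3-fold compound dilution series for 72 hours. Viability was read by CellTiter-Glo luminescence; IC50 came from four-parameter logistic fitting of percent inhibition.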

[5] = target: T5, Ba/F3 cells CD74-ROS1 wild-type (wt) (Homo sapiens, UniProt P08922); experiment: Ba/F3 cell proliferation assay, CD74-ROS1 wild-type; assay type: cell-based; details: 72 hours, CellTiter-Glo
T5 construct: fusion of the C-terminus of ROS1 with the N-terminus of various partner proteins; host or cells: Ba/F3 (RIKEN), retroviral pMSCV-puro; the other entry of the earlier key: CD74 (P04233, HLA class II histocompatibility antigen gamma chain)
T5 sequence (P08922 1883-2347 limits assumed): as the sequence (P08922 1883-2347 G2032R limits assumed) above, with R150G counted along it
Summary of the method: as §3

[6] = target: T6, ALK L1196M/G1202R (Homo sapiens, UniProt Q9UM73, G1202R/L1196M); experiment: Biochemical kinase assay, ALK L1196M/G1202R kinase domain; details: apparent inhibitory constant, Morrison equation; ATP 2 mM in substrate solution; read-out: ALK-L1196M-G1202R Ki^app
T6 construct: purchased SignalChem A19-12NG
T6 sequence (Q9UM73 1116-1392 L1196M/G1202R limits assumed): as the sequence (Q9UM73 1116-1392 limits assumed) above, with L81M, G87R counted along it
Summary of the method: as §1

[7] = target: T7, ROS1-G2032R (Homo sapiens, UniProt P08922, G2032R); experiment: Biochemical kinase assay, ROS1-G2032R kinase domain; details: apparent inhibitory constant, Morrison equation; ATP 2 mM in substrate solution; read-out: ROS1-G2032R Ki^app
T7 construct: purchased SignalChem R14-12BG
T7 sequence (P08922 1945-2222 G2032R limits assumed): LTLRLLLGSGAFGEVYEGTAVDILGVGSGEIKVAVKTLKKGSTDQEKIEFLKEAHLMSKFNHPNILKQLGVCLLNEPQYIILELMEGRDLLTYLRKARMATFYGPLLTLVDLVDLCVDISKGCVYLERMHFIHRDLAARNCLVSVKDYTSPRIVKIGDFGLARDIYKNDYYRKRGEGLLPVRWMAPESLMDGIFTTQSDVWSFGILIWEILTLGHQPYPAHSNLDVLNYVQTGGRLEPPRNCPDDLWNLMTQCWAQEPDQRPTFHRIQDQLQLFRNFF
Summary of the method: (§4)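 Compounds, as 100-fold DMSO stocks, were dispensed first, then substrate mix was added (ATP 2 mM, AQT0101 26 μM, in 50 mM HEPES pH 7.5/10 mM MgCl2). Reactions ran at 30 °C with fluorescence logged every 2 min over 120 min. Apparent inhibition constants came from fitting rates to Morrison's tight-binding equation.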

[8] = target: T8, Ba/F3 cells EML4-ALK wt (variant 1) (Homo sapiens, UniProt Q9UM73); experiment: Ba/F3 cell proliferation assay, EML4-ALK wt (variant 1); assay type: cell-based; details: 72 hours, CellTiter-Glo
T8 construct: echinoderm microtubule-associated protein-like 4 (EML4) gene and the ALK tyrosine kinase domain; host or cells: Ba/F3 (RIKEN), retroviral pMSCV-puro; the other entry of the earlier key: EML4 (Q9HC35, Echinoderm microtubule-associated protein-like 4)
T8 sequence (Q9UM73 with tags, fused parts or gaps): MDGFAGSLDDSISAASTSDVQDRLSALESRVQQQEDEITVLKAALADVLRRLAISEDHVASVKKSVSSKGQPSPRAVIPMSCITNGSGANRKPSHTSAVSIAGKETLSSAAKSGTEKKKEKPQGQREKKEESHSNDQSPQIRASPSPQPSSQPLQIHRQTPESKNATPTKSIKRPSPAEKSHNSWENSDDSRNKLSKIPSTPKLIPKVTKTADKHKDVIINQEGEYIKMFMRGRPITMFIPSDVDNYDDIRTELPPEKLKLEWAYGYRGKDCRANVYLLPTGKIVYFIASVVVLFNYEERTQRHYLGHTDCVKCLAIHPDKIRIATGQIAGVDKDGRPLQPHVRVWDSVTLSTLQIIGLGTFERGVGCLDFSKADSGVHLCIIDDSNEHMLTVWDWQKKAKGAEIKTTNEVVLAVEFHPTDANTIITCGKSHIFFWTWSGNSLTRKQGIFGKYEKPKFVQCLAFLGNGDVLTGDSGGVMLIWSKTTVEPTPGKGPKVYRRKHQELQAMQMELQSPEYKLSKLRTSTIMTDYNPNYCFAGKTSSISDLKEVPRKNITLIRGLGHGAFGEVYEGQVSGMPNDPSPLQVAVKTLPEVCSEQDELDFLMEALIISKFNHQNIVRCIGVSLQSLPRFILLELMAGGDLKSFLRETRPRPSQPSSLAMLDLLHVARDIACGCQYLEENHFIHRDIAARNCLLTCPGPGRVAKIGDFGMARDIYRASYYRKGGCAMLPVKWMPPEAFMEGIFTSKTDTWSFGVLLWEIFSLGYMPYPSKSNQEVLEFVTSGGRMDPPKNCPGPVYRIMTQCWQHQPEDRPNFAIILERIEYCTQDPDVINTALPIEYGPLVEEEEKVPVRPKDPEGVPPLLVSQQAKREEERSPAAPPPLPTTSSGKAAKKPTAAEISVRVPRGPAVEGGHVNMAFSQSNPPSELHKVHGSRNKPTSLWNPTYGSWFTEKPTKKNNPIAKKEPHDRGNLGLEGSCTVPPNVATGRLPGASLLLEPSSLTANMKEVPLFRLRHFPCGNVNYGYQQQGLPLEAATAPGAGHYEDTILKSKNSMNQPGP
Summary of the method: as §2

[9] = target: T9, ROS1-wt (Homo sapiens, UniProt P08922); experiment: Biochemical kinase assay, ROS1-wt kinase domain; details: apparent inhibitory constant, Morrison equation; ATP 2 mM in substrate solution; read-out: ROS1-wt Ki^app
T9 construct: purchased Carna 08-163
T9 sequence (P08922 1945-2222 limits assumed): as the sequence (P08922 1945-2222 G2032R limits assumed) above, with R88G counted along it
Summary of the method: as §4

[10] = target: T10, Ba/F3 cells EML4-ALK L1196M/G1202R (variant 1) (Homo sapiens, UniProt Q9UM73, G1202R/L1196M); experiment: Ba/F3 cell proliferation assay, EML4-ALK L1196M/G1202R (variant 1); assay type: cell-based; details: 72 hours, CellTiter-Glo
T10 construct: echinoderm microtubule-associated protein-like 4 (EML4) gene and the ALK tyrosine kinase domain; host or cells: Ba/F3 (RIKEN), retroviral pMSCV-puro; the other entry of the earlier key: EML4 (Q9HC35, Echinoderm microtubule-associated protein-like 4)
T10 sequence (Q9UM73 with tags, fused parts or gaps L1196M/G1202R): as the sequence (Q9UM73 with tags, fused parts or gaps) above, with L635M, G641R counted along it
Summary of the method: as §2

[11] = tested on: TPM3-NTRK1-wt IC50 / primary target IC50 (e.g. CD74-ROS1-wt); experiment: TRKA selectivity in Ba/F3 cells (TRKA potency divided by primary target potency); assay type: cell-based; details: for TPM3-NTRK1-wt/CD74-ROS1-G2032R selectivity ratio: TRKA potency / CD74-ROS1-G2032R potency; for TPM3-NTRK1-wt/CD74-ROS1-wt selectivity ratio: TRKA potency / CD74-ROS1-wt potency; for TPM3-NTRK1-wt/EML4-ALK-L1196M-G1202R selectivity ratio: TRKA potency / EML4-ALK-L1196M-G1202R potency; for TPM3-NTRK1-wt/EML4-ALK-wt selectivity ratio: TRKA potency / EML4-ALK-wt potency
Protocol: TRKA selectivity was calculated by dividing a compound's TRKA potency by its primary target potency (e.g. TPM3-NTRK1-wt IC50/CD74-ROS1-wt IC50). Compound selectivity can be interpreted by binning ratio values: bin A for very high selectivity, ratio >30-fold; bin B for high selectivity, ratio >10-fold; bin C for moderate selectivity, ratio ≥1; and bin D for low selectivity, ratio <1. […] (nd=not determined).

C[C@H]1Oc2cc(cnc2N)-c2c(cnn2C(F)F)Cn2nccc2-c2ccc(F)cc21 [Example 12, (19R)-3-(difluoromethyl)-16-fluoro-19-methyl-20-oxa-3,4,8,9,23-pentaazapentacyclo[19.3.1.0^2,^6.0^8,^12.0^13,^18]pentacosa-1(24),2(6),4,9,11,13,15,17,21(25),22-decaen-22-amine]
Ki [1]: > 500 nM
IC50 [2]: > 500 nM
Ki [3]: < 50 nM
IC50 [4]: 0.1 to 50 nM
IC50 [5]: 0.1 to 50 nM
Ki [6]: 50 to 500 nM
Ki [7]: 50 to 500 nM
IC50 [8]: 50 to 500 nM
Ki [9]: < 50 nM
IC50 [10]: > 500 nM
TPM3-NTRK1-wt/CD74-ROS1-G2032R selectivity ratio [11]: A (bin A for very high selectivity, ratio >30-fold)
TPM3-NTRK1-wt/CD74-ROS1-wt selectivity ratio [11]: A (bin A for very high selectivity, ratio >30-fold)
TPM3-NTRK1-wt/EML4-ALK-L1196M-G1202R selectivity ratio [11]: C (bin C for moderate selectivity, ratio ≥1)
TPM3-NTRK1-wt/EML4-ALK-wt selectivity ratio [11]: A (bin A for very high selectivity, ratio >30-fold)

C[C@H]1Oc2cc(cnc2N)-c2c(cnn2C2CCC2)Cn2nncc2-c2ccc(F)cc21 [Example 7, (19R)-3-cyclobutyl-16-fluoro-19-methyl-20-oxa-3,4,8,9,10,23-hexaazapentacyclo[19.3.1.0^2,^6.0^8,^12.0^13,^18]pentacosa-1(24),2(6),4,9,11,13,15,17,21(25),22-decaen-22-amine]
Ki [1]: > 500 nM
IC50 [2]: > 500 nM
Ki [3]: < 50 nM
IC50 [4]: 0.1 to 50 nM
IC50 [5]: 0.1 to 50 nM
Ki [6]: < 50 nM
Ki [7]: 50 to 500 nM
IC50 [8]: 0.1 to 50 nM
Ki [9]: < 50 nM
IC50 [10]: 50 to 500 nM
TPM3-NTRK1-wt/CD74-ROS1-G2032R selectivity ratio [11]: A (bin A for very high selectivity, ratio >30-fold)
TPM3-NTRK1-wt/CD74-ROS1-wt selectivity ratio [11]: A (bin A for very high selectivity, ratio >30-fold)
TPM3-NTRK1-wt/EML4-ALK-L1196M-G1202R selectivity ratio [11]: B (bin B for high selectivity, ratio >10-fold)
TPM3-NTRK1-wt/EML4-ALK-wt selectivity ratio [11]: A (bin A for very high selectivity, ratio >30-fold)

C[C@H]1Oc2cc(cnc2N)-c2c(c(Cl)nn2CC2CC2)Cc2nn(C)cc2-c2ccc(F)cc21 [Example 90, (19R)-5-chloro-3-(cyclopropylmethyl)-16-fluoro-10,19-dimethyl-20-oxa-3,4,9,10,23-pentaazapentacyclo[19.3.1.0^2,^6.0^8,^12.0^13,^18]pentacosa-1(24),2(6),4,8,11,13,15,17,21(25),22-decaen-22-amine]
Ki [1]: > 500 nM
IC50 [2]: > 500 nM
Ki [3]: < 50 nM
IC50 [4]: 0.1 to 50 nM
IC50 [5]: 0.1 to 50 nM
Ki [6]: < 50 nM
Ki [7]: < 50 nM
IC50 [8]: 0.1 to 50 nM
Ki [9]: < 50 nM
IC50 [10]: 50 to 500 nM
TPM3-NTRK1-wt/CD74-ROS1-G2032R selectivity ratio [11]: A (bin A for very high selectivity, ratio >30-fold)
TPM3-NTRK1-wt/CD74-ROS1-wt selectivity ratio [11]: A (bin A for very high selectivity, ratio >30-fold)
TPM3-NTRK1-wt/EML4-ALK-L1196M-G1202R selectivity ratio [11]: A (bin A for very high selectivity, ratio >30-fold)
TPM3-NTRK1-wt/EML4-ALK-wt selectivity ratio [11]: A (bin A for very high selectivity, ratio >30-fold)

CCc1noc2c1-c1cnc(N)c(c1)O[C@H](C)c1cc(F)ccc1-c1ccnn1C2 [Example 21, (19R)-3-ethyl-16-fluoro-19-methyl-5,20-dioxa-4,8,9,23-tetraazapentacyclo[19.3.1.0^2,^6.0^8,^12.0^13,^18]pentacosa-1(24),2(6),3,9,11,13,15,17,21 (25),22-decaen-22-amine]
Ki [1]: 50 to 500 nM
IC50 [2]: 50 to 500 nM
Ki [3]: < 50 nM
IC50 [4]: 0.1 to 50 nM
IC50 [5]: 0.1 to 50 nM
Ki [6]: < 50 nM
Ki [7]: < 50 nM
IC50 [8]: 0.1 to 50 nM
Ki [9]: < 50 nM
IC50 [10]: 50 to 500 nM
TPM3-NTRK1-wt/CD74-ROS1-G2032R selectivity ratio [11]: B (bin B for high selectivity, ratio >10-fold)
TPM3-NTRK1-wt/CD74-ROS1-wt selectivity ratio [11]: A (bin A for very high selectivity, ratio >30-fold)
TPM3-NTRK1-wt/EML4-ALK-L1196M-G1202R selectivity ratio [11]: C (bin C for moderate selectivity, ratio ≥1)
TPM3-NTRK1-wt/EML4-ALK-wt selectivity ratio [11]: A (bin A for very high selectivity, ratio >30-fold)

CCc1noc2c1-c1cnc(N)c(c1)O[C@H](C)c1cc(F)ccc1-c1nnnn1C2 [Example 58, (19R)-3-ethyl-16-fluoro-19-methyl-5,20-dioxa-4,8,9,10,11,23-hexaazapentacyclo[19.3.1.0^2,^6.0^8,^12.0^13,^18]pentacosa-1(24),2(6),3,9,11,13,15,17,21(25),22-decaen-22-amine]
Ki [1]: 50 to 500 nM
IC50 [2]: 50 to 500 nM
Ki [3]: < 50 nM
IC50 [4]: 50 to 500 nM
IC50 [5]: 0.1 to 50 nM
Ki [6]: 50 to 500 nM
Ki [7]: 50 to 500 nM
IC50 [8]: 50 to 500 nM
Ki [9]: < 50 nM
IC50 [10]: > 500 nM
TPM3-NTRK1-wt/CD74-ROS1-G2032R selectivity ratio [11]: C (bin C for moderate selectivity, ratio ≥1)
TPM3-NTRK1-wt/CD74-ROS1-wt selectivity ratio [11]: A (bin A for very high selectivity, ratio >30-fold)
TPM3-NTRK1-wt/EML4-ALK-L1196M-G1202R selectivity ratio [11]: D (bin D for low selectivity, ratio <1)
TPM3-NTRK1-wt/EML4-ALK-wt selectivity ratio [11]: C (bin C for moderate selectivity, ratio ≥1)

C[C@H]1Oc2cc(cnc2N)-c2c(cnn2CC(F)F)Cn2nc(Cl)cc2-c2ccc(F)cc21 [Example 55, (19R)-10-chloro-3-(2,2difluoroethyl)-16-fluoro-19-methyl-20-oxa-3,4,8,9,23-pentaazapentacyclo[19.3.1.0^2,^6.0^8,^12.0^13,^18]pentacosa-1(24),2(6),4,9,11,13,15,17,21(25),22-decaen-22-amine]
Ki [1]: > 500 nM
IC50 [2]: > 500 nM
Ki [3]: < 50 nM
IC50 [4]: 0.1 to 50 nM
IC50 [5]: 0.1 to 50 nM
Ki [6]: 50 to 500 nM
Ki [7]: < 50 nM
IC50 [8]: 0.1 to 50 nM
Ki [9]: < 50 nM
IC50 [10]: 50 to 500 nM
TPM3-NTRK1-wt/CD74-ROS1-G2032R selectivity ratio [11]: A (bin A for very high selectivity, ratio >30-fold)
TPM3-NTRK1-wt/CD74-ROS1-wt selectivity ratio [11]: A (bin A for very high selectivity, ratio >30-fold)
TPM3-NTRK1-wt/EML4-ALK-L1196M-G1202R selectivity ratio [11]: C (bin C for moderate selectivity, ratio ≥1)
TPM3-NTRK1-wt/EML4-ALK-wt selectivity ratio [11]: A (bin A for very high selectivity, ratio >30-fold)
